Test results: PMC5196235 (International Journal for Parasitology: Drugs and Drug …, 2016)
Where a name gives a salt, the structure may show the parent alone.

Key:
Asu-ACR-16 receptor [1] = target: T1, Asu-ACR-16 receptor (Ascaris suum, UniProt F1KYJ9); assay: Two-electrode voltage clamp of Asu-ACR-16 expressed in Xenopus oocytes; assay type: cell-based; conditions: for effect at high concentration (response left out of the Hill fit): 30 μM 5-methylnicotine, 100 μM 6-methylnicotine, 300 μM homonicotine, 100 μM (S, R)-anabasine; for Hill slope (nH): Asu-ACR-16 in Xenopus oocytes, Hill equation fit, mean ± S.E.M., N = 5; for Emax: read-out: maximum response (Imax)
T1 sequence (F1KYJ9 1-504): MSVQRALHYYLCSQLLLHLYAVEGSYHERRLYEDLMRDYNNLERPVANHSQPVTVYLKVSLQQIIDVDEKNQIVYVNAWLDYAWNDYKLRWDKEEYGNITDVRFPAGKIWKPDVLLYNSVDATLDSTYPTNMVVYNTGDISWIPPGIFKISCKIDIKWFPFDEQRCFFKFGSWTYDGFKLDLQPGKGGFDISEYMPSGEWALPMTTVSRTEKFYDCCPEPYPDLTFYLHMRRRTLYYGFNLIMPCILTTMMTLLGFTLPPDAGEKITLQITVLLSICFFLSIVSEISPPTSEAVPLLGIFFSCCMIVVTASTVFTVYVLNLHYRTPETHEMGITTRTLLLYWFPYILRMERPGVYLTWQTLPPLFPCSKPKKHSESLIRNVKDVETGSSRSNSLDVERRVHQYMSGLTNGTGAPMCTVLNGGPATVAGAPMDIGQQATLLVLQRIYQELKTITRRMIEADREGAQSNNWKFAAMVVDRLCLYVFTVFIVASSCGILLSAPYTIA

Asu-ACR-16 receptor [2] = target: T1, Asu-ACR-16 receptor; conditions: ref Abongwa et al., 2016; cited from earlier work

Compound | Hill slope (nH) (Asu-ACR-16 receptor [1]) | sensitivity of the Asu-ACR-16 receptor to the agonist (Asu-ACR-16 receptor [2]) | other results
Cc1cncc(C2CCCN2C)c1 (racemic) [5-methylnicotine, rac-5-methylnicotine] | 2.09 ± 0.14 | – | effect at high concentration (response left out of the Hill fit) (Asu-ACR-16 receptor [1]): inhibitory effects at high concentrations
O=c1c(Br)ccc2n1C[C@@H]1CNC[C@H]2C1 [3-bromocytisine] | – | sensitive | –
CN1CCCC1c1ccc(N)nc1.Cl.Cl (stereo not drawn) [6-AN, 5-(1-methyl-pyrrolidin-2-yl)-pyridin-2-ylamine dihydrochloride] | 10.10 ± 0.15 | – | agonist activity on Asu-ACR-16 (inward current) (Asu-ACR-16 receptor [1]; derivatives that elicited inward currents at 100 μM were classed as agonists): little agonist activity; Emax (Asu-ACR-16 receptor [1]): 6.29 ± 0.62%
CN1CCC[C@H]1c1cncc(Br)c1 [(S)-5-bromonicotine] | 2.46 ± 0.21 | – | –
CN1CCC[C@H]1c1cccnc1 [(S)-nicotine, (−)-nicotine hydrogen tartrate salt] | 3.39 ± 0.36 | sensitive | –
C#Cc1cncc([C@@H]2CCCN2C)c1 [(S)—SIB 1508Y] | 0.94 ± 0.04 | – | Emax (Asu-ACR-16 receptor [1]): 100 ± 4.36%
CC(=O)OCC[N+](C)(C)C [ACh, acetylcholine] | 2.93 ± 0.13 | sensitive | –
C[N+]1(C)CCN(c2ccccc2)CC1.[I-] [DMPP, dimethyl-4-phenyllpiperazinium iodide] | – | sensitive | –
O=c1cccc2n1C[C@@H]1CNC[C@H]2C1 [cytisine] | – | sensitive | –
Clc1ccc(C2CC3CCC2N3)cn1 (stereo not drawn) [epibatidine] | – | sensitive | –
(±)-nornicotine | 3.25 ± 0.49 | – | –
anabasine [(S, R)-anabasine] | – | – | effect at high concentration (response left out of the Hill fit) (Asu-ACR-16 receptor [1]): inhibitory effect
